Measured values reported in US10702572B2, “Methods and compounds to suppress viral genome release and packaging” (Carnegie Mellon University, priority 2015, dated 2020).
Where two headings read alike, the source gives them in different places. Where no end group is shown, it is not given here.

Experiments:
[1] = LD50 (species not stated); assay type: in vivo; settings: conversion in brackets
[2] = cited from earlier work
[3] = system: packaged viral DNA in the capsid; settings: low-salt buffer, Mg2+ removed by EDTA
Text: (§1) [formula] […] Single-Molecule Fluorescence Measurements of Phage Ejection Ensemble Kinetics.
Phage particles were imaged using a Nikon 2000E2 microscope with a spinning disk confocal scan head (Yokagawa Industries, Tokyo, Japan).

phage λ = assay: Intracapsid DNA transition temperature by ITC and SAXS; parameters: species or system bacteriophage λ; settings: 78% WT DNA length phage λ, 20 mM EDTA added to 10 mM MgCl2 Tris-buffer
Text: WT bacteriophage λ cI857, with a genome length of 48.5 kb was produced by thermal induction of lysogenic E. coli strain AE1 derived from the 52773 strain. Two phage λ mutants with shorter genome lengths (78 and 94% of the WT DNA length) were produced using a similar procedure. The receptor was the LamB protein purified from pop 154, a strain of E. coli K12 in which the LamB gene has been transduced from Shigella sonnei 3070. Phage and LamB purification details are described in Evilevitch A., et al., Osmotic pressure inhibition of DNA ejection from phage. Proc. Natl. Acad. Sci. U.S.A. 2003; 100:9292-9295 and Ivanovska I., et al., Internal DNA pressure modifies stability of WT phage. Proc. Natl. Acad. Sci. U.S.A. 2007; 104:9603-9608.
All calorimetric measurements were performed using the MicroCal iTC200 system manufactured by GE Healthcare, Life Sciences. […] J. Mol. Biol. 2010; 395:1079-1087.
Small angle X-ray scattering (SAXS) measurements were carried out at the 12-ID B station at the Advanced Photon Source at Argonne National Laboratory. A 12-KeV X-ray beam was used to illuminate the sample with an overall scattering vector q range from 0.006 to 0.850 Å-1. A total of 120 μl of phage solution (˜5×1013 pfu/ml) was injected into a flow-through glass capillary and the solution was oscillated during the SAXS measurement with a flow rate of 10 μl/s. Forty scans with 1 s X-ray exposure time were collected and averaged for each sample. A buffer solution of the dialysis buffer for phage samples was measured using the same SAXS setup, which was further subtracted as the background. After the background subtraction, the scattered intensity I versus q was plotted and the DNA peak region was truncated from 0.18 Å-1 to 0.33 Å-1. This DNA diffraction peak was fitted with a Gaussian curve plus a linear background using function (1), where q0 is the peak center, w is the peak width, A0 is the peak area, k is the slope of the linear background and c is the offset.
as §1
ITC and SAXS assays were used to determine DNA transition temperatures for WT λ-DNA length phage in MgCl2 Tris-buffer with MgCl2 concentrations varied between 5 and 50 mM, see FIGS. 3A-3C. The intracapsid DNA transition occurs at temperature T*, corresponding to either a discontinuity in the linear dependence of ΔHej on temperature (FIG. 3A) or to an abrupt change in the linear decay of the DNA diffraction peak area versus temperature measured by SAXS (FIG. 3B). DNA transition temperatures as a function of Mg-concentration determined by both techniques are in good agreement with each other and are summarized in FIG. 3C. […] However, the inventors have previously shown that at DNA packing density in phage λ, the screening effect of Mg-ions will become progressively smaller with increasing Mg-concentration due to the counter-ion saturation (Evilevitch A., et al., Effects of salt concentrations and bending energy on the extent of ejection of phage genomes. Biophys. J. 2008; 94:1110-1120). Furthermore, if the Mg ion concentration continues to increase, the counterions are forced into regions on the helices that begin to increase the effective repulsions between packaged DNA strands. […]

HSV-1, HSV-2, VZV, HCMV = assay: Antiviral screening study of condensing compounds; assay type: cell-based; settings: result in words
Experimental: PAMAM Dendrimer G0, branched polyethylenimine (bPEI), Arg5+, DAB-AM-4, and DAB-AM-8 were utilized as test compounds. These compounds are described above.
Monolayers of HFF cells were prepared in six-well plates and incubated at 37° C. for 2 d to allow the cells to reach confluency. Media was then aspirated from the wells and 0.2 ml of virus was added to each of three wells to yield 20-30 plaques in each well. The virus was allowed to adsorb to the cells for 1 h and the plates were agitated every 15 minutes. Compounds were diluted in assay media consisting of MEM with Earl's salts supplemented with 2% FBS, L-glutamine, penicillin, and gentamycin. Solutions ranging from 300 μM to 0.1 μM were added to duplicate wells and the plates were incubated for various times, depending on the virus used. For HSV-1 and -2, the monolayers were then stained with 1% crystal violet in 20% methanol and the unbound dye removed by washing with dH2O. For all other assays, the cell monolayer was stained with 1% Neutral Red solution for 4 h then the stain was aspirated and the cells were washed with PBS. For all assays, plaques were enumerated using a stereomicroscope and the concentration of compound that reduced plaque formation by 50% (EC50) was interpolated from the experimental data.

cell membrane = settings: not told; cited from earlier work

O=C(O)[C@@H](S)[C@@H](S)C(=O)O [DMSA, meso-2,3-Dimercaptosuccinic acid]
LD50 as concentration [1]: ~27.5 mM | LD50 ([2]; species and route not given): 5011 mg/kg

O=C(O)CN(CCOCCOCCN(CC(=O)O)CC(=O)O)CC(=O)O [EGTA, Ethylene glycol-bis(2-aminoethylether)-N,N,N′,N′-tetraacetic acid]
LD50 as concentration [1]: ~9.5 mM | LD50 ([2]; in vivo): 3587 mg/kg

O=C(O)CN(CCN(CC(=O)O)CC(=O)O)CC(=O)O [EDTA, Ethylenediaminetetraacetic acid]
DNA ejection from the capsid [3]: essentially stalled | infection [3]: no infection is observed | DNA transition temperature T* (phage λ): ~36 °C

RRRRR [Arg5+]
antiviral activity in the screening study (HSV-1, HSV-2, VZV, HCMV): showed antiviral activity | permeation of the cell membrane (cell membrane): permeate the cell membrane
